Drawing on ChEMBL document CHEMBL1255549 (Bioorg Med Chem Lett, 2010), this text covers Ki for one compound.

This assay addresses Maltase-glucoamylase (Homo sapiens, UniProt O43451). As to the kind of experiment: Inhibition of human recombinant N-terminal domain of maltase-glucoamylase after 60 mins by glucose oxidase assay.

Chain of Maltase-glucoamylase (O43451 whole entry, the tested form may be a part): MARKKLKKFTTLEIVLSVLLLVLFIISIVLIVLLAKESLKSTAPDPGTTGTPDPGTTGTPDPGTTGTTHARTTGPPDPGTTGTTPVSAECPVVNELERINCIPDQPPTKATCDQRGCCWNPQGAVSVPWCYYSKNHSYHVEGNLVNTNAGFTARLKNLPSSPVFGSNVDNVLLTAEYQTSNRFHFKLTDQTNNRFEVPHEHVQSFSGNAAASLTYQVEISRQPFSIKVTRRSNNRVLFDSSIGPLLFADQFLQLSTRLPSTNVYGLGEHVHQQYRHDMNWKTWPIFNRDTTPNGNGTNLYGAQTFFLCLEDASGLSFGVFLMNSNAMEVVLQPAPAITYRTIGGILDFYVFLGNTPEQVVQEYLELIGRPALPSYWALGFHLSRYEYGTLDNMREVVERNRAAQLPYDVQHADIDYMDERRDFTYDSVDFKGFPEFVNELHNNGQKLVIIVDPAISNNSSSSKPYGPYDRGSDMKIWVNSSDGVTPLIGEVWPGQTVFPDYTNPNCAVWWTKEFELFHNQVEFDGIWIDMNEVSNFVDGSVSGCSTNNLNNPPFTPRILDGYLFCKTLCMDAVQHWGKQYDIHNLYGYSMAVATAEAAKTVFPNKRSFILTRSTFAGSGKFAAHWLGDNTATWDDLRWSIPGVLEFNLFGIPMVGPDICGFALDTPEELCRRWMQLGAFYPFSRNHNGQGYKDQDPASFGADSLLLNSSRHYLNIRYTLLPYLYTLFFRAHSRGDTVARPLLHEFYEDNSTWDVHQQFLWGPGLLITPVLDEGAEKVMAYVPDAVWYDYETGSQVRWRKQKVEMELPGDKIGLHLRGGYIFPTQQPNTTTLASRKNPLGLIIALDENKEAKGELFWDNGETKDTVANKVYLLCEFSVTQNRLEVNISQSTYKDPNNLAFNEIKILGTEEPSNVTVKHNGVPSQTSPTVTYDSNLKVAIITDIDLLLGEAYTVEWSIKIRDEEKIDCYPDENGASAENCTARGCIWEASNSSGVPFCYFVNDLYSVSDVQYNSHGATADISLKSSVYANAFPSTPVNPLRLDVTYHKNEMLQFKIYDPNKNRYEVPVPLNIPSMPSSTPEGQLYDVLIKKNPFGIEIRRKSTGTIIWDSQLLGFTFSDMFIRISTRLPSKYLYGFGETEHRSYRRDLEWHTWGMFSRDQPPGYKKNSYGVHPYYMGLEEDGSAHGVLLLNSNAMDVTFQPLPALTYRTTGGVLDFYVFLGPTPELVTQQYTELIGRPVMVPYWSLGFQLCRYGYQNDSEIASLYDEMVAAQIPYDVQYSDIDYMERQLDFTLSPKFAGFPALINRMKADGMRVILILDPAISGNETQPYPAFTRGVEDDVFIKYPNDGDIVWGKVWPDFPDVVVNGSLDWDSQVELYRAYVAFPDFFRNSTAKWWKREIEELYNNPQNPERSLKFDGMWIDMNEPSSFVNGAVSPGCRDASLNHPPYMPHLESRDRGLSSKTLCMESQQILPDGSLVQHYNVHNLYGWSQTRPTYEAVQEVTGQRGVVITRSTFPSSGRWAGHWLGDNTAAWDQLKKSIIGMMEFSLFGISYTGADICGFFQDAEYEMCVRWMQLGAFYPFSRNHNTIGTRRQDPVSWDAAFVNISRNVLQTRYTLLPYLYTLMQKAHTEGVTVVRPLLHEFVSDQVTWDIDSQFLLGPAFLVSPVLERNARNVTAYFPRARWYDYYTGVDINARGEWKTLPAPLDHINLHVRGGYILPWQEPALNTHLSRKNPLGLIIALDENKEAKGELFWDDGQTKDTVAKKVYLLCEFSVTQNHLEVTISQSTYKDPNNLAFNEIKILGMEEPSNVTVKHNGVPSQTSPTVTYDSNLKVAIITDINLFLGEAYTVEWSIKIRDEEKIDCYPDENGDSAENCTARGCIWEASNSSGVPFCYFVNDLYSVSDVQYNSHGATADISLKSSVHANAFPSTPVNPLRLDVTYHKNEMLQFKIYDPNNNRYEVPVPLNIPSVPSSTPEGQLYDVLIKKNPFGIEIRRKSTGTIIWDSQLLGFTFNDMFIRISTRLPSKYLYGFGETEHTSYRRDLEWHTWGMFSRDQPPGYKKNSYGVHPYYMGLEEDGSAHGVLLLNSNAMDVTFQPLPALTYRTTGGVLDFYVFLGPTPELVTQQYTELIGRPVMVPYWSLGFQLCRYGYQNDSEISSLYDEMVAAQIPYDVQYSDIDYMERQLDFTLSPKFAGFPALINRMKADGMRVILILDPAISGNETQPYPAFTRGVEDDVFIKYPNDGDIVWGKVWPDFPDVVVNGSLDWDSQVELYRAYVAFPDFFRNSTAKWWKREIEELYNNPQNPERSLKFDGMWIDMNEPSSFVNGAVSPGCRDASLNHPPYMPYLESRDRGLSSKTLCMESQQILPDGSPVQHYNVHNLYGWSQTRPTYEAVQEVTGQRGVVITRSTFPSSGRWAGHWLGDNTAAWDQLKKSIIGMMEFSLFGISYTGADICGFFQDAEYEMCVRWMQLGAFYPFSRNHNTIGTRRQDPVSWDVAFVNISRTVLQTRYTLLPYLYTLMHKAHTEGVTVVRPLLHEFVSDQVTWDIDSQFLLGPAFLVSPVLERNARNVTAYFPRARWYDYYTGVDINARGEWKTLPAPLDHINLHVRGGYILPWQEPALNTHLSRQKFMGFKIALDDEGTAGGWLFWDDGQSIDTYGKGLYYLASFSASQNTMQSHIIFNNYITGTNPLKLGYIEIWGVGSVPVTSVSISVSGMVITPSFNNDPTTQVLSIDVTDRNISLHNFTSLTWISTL

Usually Ki stands for a dissociation constant, usually derived from enzyme kinetics or from competition with a known ligand. Take `CO[C@@H]([C@H](O)[C@@H](O)CO)[C@H](O)C[S@+]1C[C@@H](O)[C@H](O)[C@H]1CO`: the Ki was 500 nM.
